Key:
[1] = system: HMEC, HBL100 and MCF10A cells; assay: Colony formation assay, non-malignant ATB^0,+-negative mammary epithelial cell lines; type: cell-based, human; details: 2.5 mM, 12 days
Protocol: The colony formation assay was performed as described previously (Thangaraju et al., 2006, Cancer Res. 66, 11560-11564). Mammary epithelial cells were seeded on to 6-well plates (10000 cells per well) in DMEM. After 24 hours, cells were exposed to varying concentrations of α-methyl-DL-tryptophan or 1-methyl-DL-tryptophan for 2 weeks, changing medium every 2 days. Cells were washed with PBS and fixed in 100% (v/v) methanol for 30 min followed by staining with KaryoMAX Giemsa stain for one hour. The wells were washed with water and dried overnight at room temperature. Finally, the dye in the wells was dissolved with 1% SDS in 0.2 M NaOH for one hour, and the attenuance of the released dye was measured at 630 nm.
The present studies have identified α-methyl-DL-tryptophan as a blocker of ATB^0,+ and also have shown that the compound is able to block the transport of amino acids via ATB^0,+ under conditions that stimulate those in vivo in terms of amino acid concentrations. […] For this, we treated the human mammary epithelial cell lines with 2.5 mM α-methyl-DL-tryptophan in the presence of regular culture medium for 12 days in clonogenic assay and quantified the colony formation for each cell line in the presence and absence of α-methyl-DL-tryptophan (FIG. 8). […]

[2] = mice; 2 mg/ml in drinking water; cited from earlier work

Structure (SMILES) | effect on ability to form colonies [1] | plasma levels [2]
CC(N)(Cc1c[nH]c2ccccc12)C(=O)O (racemic) [α-methyl-DL-tryptophan] | no effect | 
Cn1cc(C[C@@H](N)C(=O)O)c2ccccc21 [1-methyl-D-tryptophan] |  | 35 to 40 µM
